# Experimental data: patent US7897640B2 (priority 2003, dated 2011)
# Where two headings read alike, the source gives them in different places.
# What was measured:
# [1] = tested on: AZT-resistant strain HIV-1 018c; assay: microbe, parasite or virus in culture; details: Human immunodeficiency virus 1, PBMC, 96 h, read-out: Median effective concentration (EC50), HIV-1 P24 antigen
# [2] = cytotoxicity by MTT in HIV-infected PBMC culture; details: human, Median cytotoxicity concentration (CC50)
# Protocol: (§1) 10 μl MTT dye (5 mg/ml) was added to each well, and then incubated at 37° C., 5% CO2 saturated humidity incubator for 4 hours. 100 μl 50% DMF-17% Triton X-100 destainer was added to each well and the mixtures were kept at 37° C. overnight. Then OD570nm values were measured at 570 nm with a luminometer to calculate the median cytotoxicity concentration of medicament (CC50).
# (§2) The fresh normal human venous blood was taken and PBMC was separated using FiColl separation solution. The 1.5×10^5 cells/ml suspension prepared with the culture fluid containing PHA was seeded into the culture bottle and incubated in the incubator (37° C., 5% CO2) for 72 hours. The cells were collected with cell scrapers then were infected with the 10^−2 viral liquid of AZT-sensitive (018a) or AZT-resistant (018c) viral strain. After absorption for 2 hours, the non-absorbed viruses were washed with serum-free 1640 culture medium. The infected cells were prepared into 1×10^6 cells/ml with the culture fluid, and then were seeded into the 96-well culture board in 100 μl/well. At the same time, 100 μl liquor of 2× diluted AKJ-2 or 5× diluted positive control medicament AZT with different concentrations was added. The cell control group and virus control group were established. Four days (96 hours) after incubating under 37° C., 5% CO2, the supernatants were sucked out and stored at −20° C. to measure HIV-1-P24 antigen titer and calculate the inhibition effect of the medicament. The cells were dyed with MTT to measure the cytotoxicity.
# HIV-1 IIIB [3] = assay: HIV-1 P24 antigen inhibition in MT-4 culture
# Protocol: MT-4 cell suspension was counted, then 100 μl of suspension (2×10^5 cells/ml) was seeded into 96-well cell culture plate, 50 μl liquor of 2× diluted medicament or 4-5× diluted positive medicament AZT (8 concentrations) was added, respectively, and 50 μl virus suspension with proper titer was add concurrently. Each dilution was repeated in 3 wells and cell control group and virus control group were established. They were incubated at 37° C., 5% CO2 saturated humidity incubator and the cytopathy was observed everyday. On the fourth day after administration (96 hours), the supernatants were sucked out and stored at −20° C. for measuring HIV-1-P24 antigen titer. Accordingly, the inhibition effect of medicament could be calculated, and the cells were dyed with MTT to measure the cytotoxicity.
# The medicated cell supernatants infected with MT-4 were diluted after being thawed. HIV-1 P24 titer was measured according to the operation procedure described in HIV-1 P24 antigen kit.
# [formula] 2.2.2 Reed & Muench Method for Calculating CC50 and EC50 of Medicament in Cell Culture
# [formula] 2.2.3. Calculation Method of Selection Index (SI) of HIV-1 P24 Antigen in Cell Culture SI=CC50/EC50 3.
# [4] = tested on: AZT-sensitive strain HIV-1 018a
# [5] = tested on: AZT-resistant strain HIV-1 018c; details: PBMC, AZT-resistant HIV-1 018c
# [6] = tested on: AZT-sensitive strain HIV-1 018a; assay: HIV-1 P24 antigen inhibition in PBMC, AZT-sensitive strain
# HIV-1 IIIB [7] = assay: HIV-1 P24 antigen inhibition in chronically infected H9 cells
# Protocol: HIV-1 P24 antigen titer was measured according to the operation procedures stated in HIV-1 P24 antigen kit.
# 100 μl (2×10^5 cells/ml) of H9 cells suspension was seeded into 96-well cell culture plate. Then, 100 μl liquor of 2× diluted medicament or 4-5× diluted positive AZT (8 concentrations) was added. Each dilution was repeated in three wells. The cell control group was established. The cells were incubated in the incubator (37° C., 5% CO2, saturated humidity) and the cytopathy was observed everyday. Four days (96 hours) after administration, the supernatants were sucked out and stored at −20° C. to measure HIV-1-P24 antigen titer. The inhibition effect of the medicament was determined. The cells were dyed with MTT to measure the cytotoxicity.
# 2.2.2 Reed & Muench Method for Calculating CC50 and EC50 of Medicament in Cell Culture
# Calculation Method of Selection Index (SI) of HIV-1 P24 Antigen in Cell Culture SI=CC50/EC50 3.
# human T lymphocytes MT-4 = assay: cytotoxicity by MTT in MT-4 culture; details: MT-4 culture with HIV-1 IIIB, 96 hours
# solubility = type: physicochemical
# [8] = tested on: human peripheral blood mononuclear cell (PBMC); assay: cytotoxicity by MTT in HIV-infected PBMC culture; details: 96 hours
# Protocol: as §1, §2
# [9] = tested on: human T lymphocytes H9 chronically infected with HIV-1 IIIB; assay: cytotoxicity by MTT in H9 cells chronically infected with HIV-1 IIIB; details: H9 cell chronically infected with HIV-1 IIIB, 96 hours
# mycoplasma pneumoniae = assay: bacteriostatic effect on mycoplasma pneumoniae; type: cell-based
# [10] = tested on: Staphylococcus epidermidis; assay: comparative MIC experiment, Staphylococcus epidermidis; type: cell-based
# Pseudallescheria boydii = assay: in vitro antifungal test, Pseudallescheria boydii; type: cell-based
# Bacteroid = assay: comparative MIC experiment, Bacteroid; type: cell-based
# Serratia marcescens = assay: comparative MIC experiment, Serratia marcescens; type: cell-based
# [11] = tested on: aspergillus fumigatus, cryptococcus and red trichophyton; assay: in vitro antifungal test, aspergillus fumigatus, cryptococcus and red trichophyton; type: cell-based
# dermatophyte = assay: in vitro antifungal test, dermatophyte; type: cell-based
# candida and cryptococcus = assay: in vitro antifungal test, candida and cryptococcus; type: cell-based
# Candida albicans = assay: comparative MIC experiment, Candida albicans; type: cell-based
# [12] = PBMC infected with AZT-resistant HIV-1 018c
# [13] = PBMC infected with AZT-sensitive HIV-1 018a
smiles,measurement,setting,value
"Cc1cn([C@H]2C[C@H](N=[N+]=[N-])[C@@H](CO)O2)c(=O)[nH]c1=O [AZT, Zidovudine, reference compound]",EC50,[1],0.05 ± 0.01 µg/mL
same,CC50 at 96 h,[2]; [12],88 ± 15.5 µg/mL
same,CC50 at 96 h,[2]; [13],77.2 ± 20.9 µg/mL
same,EC50,"HIV-1 IIIB [3]; Human immunodeficiency virus 1, IIIB, 96 h, read-out: Median effective concentration (EC50), HIV-1 P24 antigen",0.09 ± 0.003 µg/mL
same,Selection index (CC50/EC50),"HIV-1 IIIB [3]; MT-4, HIV-1 IIIB",1808.33 ± 723.07
same,Selection index (CC50/EC50),[4],10275.78 ± 1530.22
same,Selection index (CC50/EC50),[5],1895.40 ± 479.53
same,EC50,"[6]; Human immunodeficiency virus 1, PBMC, 96 h, read-out: Median effective concentration (EC50), HIV-1 P24 antigen",< 0.0064 µg/mL
same,Selection index (CC50/EC50),HIV-1 IIIB [7]; H9 cell chronically infected with HIV-1 IIIB,83.65 ± 37.96
same,EC50,"HIV-1 IIIB [7]; Human immunodeficiency virus 1, IIIB, H9, 96 h, read-out: Median effective concentration (EC50), HIV-1 P24 antigen",1.08 ± 0.24 µg/mL
CC(=O)O[C@H](CC=C(C)C)C1=CC(=O)c2c(O)ccc(O)c2C1=O [acetylshikonin],Median cytotoxicity concentration (CC50),human T lymphocytes MT-4,0.49 ± 0.06 µg/mL
same,solubility in DMSO,solubility; DMSO,soluble
same,solubility in water,solubility; water,insoluble
same,Median cytotoxicity concentration (CC50),[8]; [12],5.83 ± 0.38 µg/mL
same,Median cytotoxicity concentration (CC50),[8]; [13],7.69 ± 0.19 µg/mL
same,Selection index (CC50/EC50),"HIV-1 IIIB [3]; MT-4, HIV-1 IIIB",2.45 ± 0.51
same,"Median effective concentration (EC50), HIV-1 P24 antigen","HIV-1 IIIB [3]; MT-4, HIV-1 IIIB, 96 hours",0.20 ± 0.03 µg/mL
same,Median cytotoxicity concentration (CC50),[9],1.77 ± 0.13 µg/mL
same,"Median effective concentration (EC50), HIV-1 P24 antigen",[5]; 96 hours,>1.25 ± 0 µg/mL
same,Selection index (CC50/EC50),"[6]; PBMC, AZT-sensitive HIV-1 018a",6.50 ± 0.08
same,"Median effective concentration (EC50), HIV-1 P24 antigen","[6]; PBMC, AZT-sensitive HIV-1 018a, 96 hours",1.18 ± 0.03 µg/mL
same,"Median effective concentration (EC50), HIV-1 P24 antigen","HIV-1 IIIB [7]; H9 cell chronically infected with HIV-1 IIIB, 96 hours",>0.25 ± 0 µg/mL
same,inhibition effect on HIV-1 IIIB chronically-infected H9 cells,HIV-1 IIIB [7]; two lots of tests,no inhibition effect
"CC[C@H]1OC(=O)[C@H](C)[C@@H](O[C@H]2C[C@@](C)(OC)[C@@H](O)[C@H](C)O2)[C@H](C)[C@@H](O[C@@H]2O[C@H](C)C[C@H](N(C)C)[C@H]2O)[C@](C)(O)C[C@@H](C)C(=O)[C@H](C)[C@@H](O)[C@]1(C)O [erythrocin, reference compound]",concentration of equivalent inhibitory effect,mycoplasma pneumoniae; comparator,0.1925 µg/mL
"CC(C)=CCC(OC(=O)C=C(C)C)C1=CC(=O)c2c(O)ccc(O)c2C1=O (stereo not drawn) [β,β-dimethylacrylshikonin]",MIC,[10],0.391 µg/mL
same,MIC,Pseudallescheria boydii,4.16-8.32 μg/mi
same,MIC,Bacteroid,0.391 µg/mL
same,MIC,Serratia marcescens,0.781 µg/mL
same,MIC,[11],3.0625 to 250 µg/mL
same,MIC,dermatophyte,4.16 to 8.32 µg/mL
same,MIC90,dermatophyte,4.16 µg/mL
same,MIC,candida and cryptococcus,2.08 to 33.3 µg/mL
same,MIC90,candida and cryptococcus,33.3 µg/mL
same,MIC,mycoplasma pneumoniae,2 µg/mL
same,MIC,Candida albicans,3.9062 µg/mL
